Test results from patent publication US20250186398A1, “CONTINUOUS DOSING REGIMEN FOR TREATMENT OF A CONDITION OF THE EYE” (EYEPOINT PHARMACEUTICALS, INC., priority 2022, published 2025).

Legend:
[1] = Intravitreal Pharmacokinetic Study of vorolanib insert, 12 months (Example 5B); assay type: in vivo, Dutch Belted Rabbits
Description: Another Intravitreal Pharmacokinetic Study was performed in Dutch Belted Rabbits. The objective of this study was to evaluate the plasma and ocular pharmacokinetics of a vorolanib insert following bilateral intravitreal injection in rabbit eyes. Animals were evaluated up to 12 months following placement of the intravitreal insert.
Dutch Belted rabbits were administered vorolanib inserts in each eye by intravitreal injection. Group 1 eyes received 1 insert containing 643 μg of vorolanib, and Group 2 eyes received 2 inserts containing 900 μg total. Blood samples were collected at 2, 7, 14, and 28 days and then once monthly for months 2-12. Inserts were recovered at 2, 7, and 14 days and then at 1, 2, 4, 6, 8, 10, and 12 months. Residual vorolanib levels were determined in all explants using high-performance liquid chromatography. The vorolanib release rate was estimated based on residual levels in the explants. Plasma and ocular tissues were separated and analyzed for vorolanib and its metabolite using liquid chromatography-mass spectrometry.

[2] = Intravitreal Pharmacokinetic Study of vorolanib insert (Example 5A); assay type: in vivo, Male Dutch Belted Rabbits
Description: An Intravitreal Pharmacokinetic Study was performed in Male Dutch Belted Rabbits. The objective of this study was to characterize the plasma and ocular tissue pharmacokinetics of a vorolanib insert following bilateral intravitreal injection on Day 1. Animals were evaluated up to 24 months following placement of the intravitreal insert.
The low dose group (1) received 3 inserts per eye for a total dose of 630 μg per eye. The high dose group (2) animals received 6 inserts per eye given in 2 separate injections (3 inserts per injection) for a total dose of 1,260 μg per eye.
Prior to each scheduled sacrifice point, one whole blood sample was collected from a targeted 2 animals per group via puncture of a marginal ear vein. Samples were tested for levels of vorolanib and its metabolite. Two animals per group were euthanized on day 1 at 6, 12, 24 and 48 hours, on days 7 and 14, and at 1, 2, 4, 6, 8, 16 and 24 months.

[3] = 18 month intravitreal toxicity and plasma pharmacokinetics study (Example 6); assay type: in vivo
Description: An 18 month intravitreal toxicity study for the insert was also performed in 80 Dutch Belted rabbits (40 male and 40 female). Animals were evaluated for a period of 6 and 18 months following placement of intravitreal inserts. The objective was to characterize the ocular toxicity, plasma pharmacokinetics and biodegradation of a vorolanib insert following bilateral intravitreal injection.
The tables below describe the group assignments and dose levels. For the toxicology groups, animals were sacrificed at 6 months and 18 months. For the plasma pharmacokinetic analysis, blood samples were collected at Days 1, 3, and 7 and then 1, 2, 3, 4, 5, 6, 12, 14, 16 and 18 Months.
The placebo group (1) animals received two placebo inserts by injection in each eye. The low dose group (2) animals received 2 inserts in each eye. The mid dose group (3) animals received 3 inserts in each eye given in 2 separate injections. The high dose group (4) animals received 4 inserts in each eye given in 2 separate injections (2 inserts/injection). The highest dose group (5) animals received 6 inserts in each eye given in 2 separate injections (3 inserts/injection).
At each scheduled timepoint, whole blood was collected via puncture of a marginal ear vein. Samples were analyzed for clinical pathology and plasma pharmacokinetics. Animals were euthanized according to the schedules described above. A complete gross necropsy was performed on all animals that were sacrificed or found dead during the study. Organs were weighed and tissues collected. Ocular tissues were collected for histopathology only.

[4] = tested on: Laser-Induced Choroidal Neovascularization (CNV); assay: Swine (Mini-pig) Model of Laser-Induced Choroidal Neovascularization, fluorescein angiography (Example 7); assay type: in vivo
Description: Safety and efficacy of a vorolanib insert were evaluated in a Swine (Mini-pig) Model of Laser-Induced Choroidal Neovascularization (CNV). The primary objective of this study was to evaluate the long-term safety and inhibition of vascular permeability and neovascularization in a laser-induced model of choroidal neovascularization (CNV) using a vorolanib insert in swine.
On the day of lasering (Groups 1-4) animals were treated with an 810 nm diode laser delivered through an indirect ophthalmoscope. Approximately 6 single laser spots were placed between retinal veins. Both eyes underwent laser treatment according to the schedule in the table above.
On the day of intravitreal injections animals were anesthetized and the eyes were aseptically prepared. […] Animals were allowed to recover normally from the procedure. The pigs were given a topical drop of antibiotic ophthalmic solution 4-6 hours later, and then BID for 2 additional days with at least 6 hours between doses. Animals were dosed on either Day 0 immediately following laser CNV induction or 7 days prior to laser CNV induction according to the schedule in the table above.
Flourescein Angiography was done in both eyes in anesthetized animals at the timepoints as indicated in the experimental design table.

Molecule | drop in mean vorolanib concentration in ocular tissues and plasma ([1]; between months 8 and 10) | vorolanib exposure rank order ([1]; ocular tissues and plasma) | concentrations in target ocular tissues (choroid and retina) relative to IC50 for VEGFR2 ([1]; through 8 months) | dose proportionality of maximum observed concentrations in vitreous and retina/choroid ([2]; 630 vs 1,260 μg per eye) | vorolanib plasma levels ([2]; PK study, intravitreal inserts) | change in plasma levels ([2]; after 99 days) | vorolanib levels in the vitreous and the retina/choroid relative to IC50 for VEGFR ([3]; at the time points tested) | vorolanib plasma levels ([3]; intravitreal inserts) | adverse findings attributed to vorolanib ([3]; up to 6 inserts per eye) | efficacy in this model ([4]; 2 mg IVT) | reduction in Corrected Total Lesion Fluorescence (CTLF) from Day 7 to Day 28, rank among Groups 1-4 ([4]; Group 1, 2 mg, 50 μL/eye IVT, Day 0)
Cc1[nH]c(/C=C2\C(=O)Nc3ccc(F)cc32)c(C)c1C(=O)N[C@H]1CCN(C(=O)N(C)C)C1 [vorolanib, (S,Z)—N-(1-(Dimethylcarbamoyl)pyrrolidin-3-yl)-5-((5-fluoro-2-oxoindolin-3-ylidene)methyl)-2,4-dimethyl-1H-pyrrole-3-carboxamide] | 85%-99% | choroid=retina=vitreous>aqueous humor>plasma | above the IC50 for VEGFR2 | nearly dose proportional | low pg/mL range | No apparent change | significantly above the IC50 for VEGFR | low pg/mL range | No adverse findings |  | 
aflibercept: VEGF inhibitor (Regeneron), intravitreal standard of care, comparator in swine CNV model |  |  |  |  |  |  |  |  |  | normal amounts of efficacy | largest reduction
